From patent publication US20240174622A1, “COMPOUND AND RADIOACTIVE LABELING COMPOUND” (NIHON MEDI-PHYSICS CO., LTD., priority 2021, published 2024)
“And” between values parts separate entries of the source, which are not always exact repeats. Equal entries are not always repeated. Values belong to the molecule of their own block, whether it stands above or below them.

System: LNCaP tumor-transplanted mouse
Assay: Internal radioactivity distribution using LNCaP tumor-transplanted mouse
Format: in vivo
Protocol: (§1) The animal test was performed in compliance with the guidelines of Kyoto University Animal Experiment Committee. Male CB17/IcrJcl-Prkdc^scid mice were purchased from CLEA Japan, Inc. The animals were kept under 12 h/12 h, day/night cycle conditions and fed ad libitum with food and water. LNCaP cells (1.0×10^7 cells/mouse) or PC-3 cells (1.0×10^7 cells/mouse) were suspended in a mixture of PBS and Matrigel manufactured by Corning Life Sciences (1:1, 150 μL) and the suspension was subcutaneously transplanted to the right shoulder of mice under isoflurane anesthesia. Thereafter, the mice were kept for 40 to 60 days.
LNCaP or PC-3 tumor-implanted mice were administered saline solutions (185 kBq, 100 μL) of [^111In]In-PSMA-DA1 or [^111In]In-PSMA-DB from the tail vein (n=3 each). Mice were euthanized 1, 4, 24, 48, 96, and 192 hours after administration. Thereafter, blood and each organ were recovered, and the mass and radioactivity of the organs were measured.
The percentage (% ID) of the radioactivity amount to the administered radioactivity amount (injected dose) is shown as the value (% ID/g) divided by the blood mass or the organ mass (g).
LNCaP tumor-implanted mice prepared by the same method as in Example 1-1 were administered a saline solution (241 kBq/100 μL) of [^111In]In-PtDA from the tail vein (n=3). Mice were euthanized 1, 24, and 48 hours after administration. Thereafter, blood and each organ were recovered, and the mass and radioactivity of the organs were measured.
LNCaP tumor-implanted mice prepared by the same method as in Example 1-1 were administered a saline solution (259 kBq/100 μL each) of each of the radiolabeled compounds in Examples 3-1 to 3-3 or Comparative Examples 2-1 to 2-2 from the tail vein (n=2 to 3). Mice were euthanized 1, 4, 24, 48, 96, and 192 hours after administration. Thereafter, blood and each organ were recovered, and the mass and radioactivity of the organs were measured.
as §1, with “LNCaP cells (4.3×10^6 cells/mouse) or” for “LNCaP cells (1.0×10^7 cells/mouse) or”, “PC-3 cells (3.3×10^6 cells/mouse) were” for “PC-3 cells (1.0×10^7 cells/mouse) were”, “shoulder of CB17/IcrJcl-Prkdc^scid mice under” for “shoulder of mice under”
Mice were euthanized 1, 4, 24, 48, 96, and 192 hours after administration. Thereafter, blood and each organ were recovered, and the mass and radioactivity of the organs were measured.
The results are shown in Table 12 (Mean value±standard deviation, n=3).

Blood (1 h after administration): 14.4 ± 1.81 % ID/g
Brain (1 h after administration): 0.20 ± 0.03 % ID/g
Heart (1 h after administration): 3.98 ± 0.51 % ID/g
Intestine (1 h after administration): 1.55 ± 0.21 % ID/g
Kidney (1 h after administration): 121 ± 14.9 % ID/g
LNCaP Tumor (1 h after administration): 12.5 ± 0.26 % ID/g
Liver (1 h after administration): 2.75 ± 0.54 % ID/g
Lung (1 h after administration): 10.1 ± 1.34 % ID/g
Muscle (1 h after administration): 1.44 ± 0.24 % ID/g
Pancreas (1 h after administration): 1.73 ± 0.18 % ID/g
Spleen (1 h after administration): 18.5 ± 4.39 % ID/g
Stomach (% ID) (1 h after administration): 0.51 ± 0.22 % ID
Blood (4 h after administration): 6.73 ± 1.63 % ID/g
Brain (4 h after administration): 0.14 ± 0.02 % ID/g
Heart (4 h after administration): 1.89 ± 0.49 % ID/g
Intestine (4 h after administration): 1.65 ± 0.37 % ID/g
Kidney (4 h after administration): 177 ± 35.7 % ID/g
LNCaP Tumor (4 h after administration): 13.7 ± 3.24 % ID/g
Liver (4 h after administration): 1.67 ± 0.47 % ID/g
Lung (4 h after administration): 5.02 ± 0.89 % ID/g
Muscle (4 h after administration): 0.63 ± 0.19 % ID/g
Pancreas (4 h after administration): 1.59 ± 0.94 % ID/g
Spleen (4 h after administration): 13.2 ± 2.66 % ID/g
Stomach (% ID) (4 h after administration): 0.23 ± 0.02 % ID
Blood (24 h after administration): 0.84 ± 0.27 % ID/g
Brain (24 h after administration): 0.03 ± 0.01 % ID/g
Heart (24 h after administration): 0.33 ± 0.05 % ID/g
Intestine (24 h after administration): 0.82 ± 0.68 % ID/g
Kidney (24 h after administration): 55.3 ± 19.3 % ID/g
LNCaP Tumor (24 h after administration): 8.64 ± 2.27 % ID/g
Liver (24 h after administration): 0.33 ± 0.02 % ID/g
Lung (24 h after administration): 0.74 ± 0.12 % ID/g
Muscle (24 h after administration): 0.07 ± 0.02 % ID/g
Pancreas (24 h after administration): 0.19 ± 0.05 % ID/g
Spleen (24 h after administration): 1.97 ± 0.90 % ID/g
Stomach (% ID) (24 h after administration): 0.21 ± 0.15 % ID
Blood (48 h after administration): 0.26 ± 0.23 % ID/g
Brain (48 h after administration): 0.02 ± 0.01 % ID/g
Heart (48 h after administration): 0.18 ± 0.12 % ID/g
Intestine (48 h after administration): 0.68 ± 0.32 % ID/g
Kidney (48 h after administration): 22.4 ± 14.5 % ID/g
LNCaP Tumor (48 h after administration): 8.10 ± 2.67 % ID/g
Liver (48 h after administration): 0.32 ± 0.10 % ID/g
Lung (48 h after administration): 0.45 ± 0.18 % ID/g
Muscle (48 h after administration): 0.04 ± 0.05 % ID/g
Pancreas (48 h after administration): 0.13 ± 0.06 % ID/g
Spleen (48 h after administration): 1.13 ± 0.70 % ID/g
Stomach (% ID) (48 h after administration): 0.16 ± 0.14 % ID
Blood (96 h after administration): 0.01 ± 0.01 % ID/g
Brain (96 h after administration): 0.01 ± 0.00 % ID/g
Heart (96 h after administration): 0.07 ± 0.02 % ID/g
Intestine (96 h after administration): 0.45 ± 0.29 % ID/g
Kidney (96 h after administration): 3.27 ± 0.26 % ID/g
LNCaP Tumor (96 h after administration): 4.48 ± 0.78 % ID/g
Liver (96 h after administration): 0.22 ± 0.01 % ID/g
Lung (96 h after administration): 0.14 ± 0.08 % ID/g
Muscle (96 h after administration): 0.05 ± 0.02 % ID/g
Pancreas (96 h after administration): 0.06 ± 0.02 % ID/g
Spleen (96 h after administration): 0.61 ± 0.04 % ID/g
Stomach (% ID) (96 h after administration): 0.04 ± 0.02 % ID
Blood (192 h after administration): 0.01 ± 0.01 % ID/g
Brain (192 h after administration): 0.01 ± 0.01 % ID/g
Heart (192 h after administration): 0.06 ± 0.02 % ID/g
Intestine (192 h after administration): 0.27 ± 0.18 % ID/g
Kidney (192 h after administration): 1.76 ± 0.70 % ID/g
LNCaP Tumor (192 h after administration): 1.76 ± 0.45 % ID/g
Liver (192 h after administration): 0.20 ± 0.05 % ID/g
Lung (192 h after administration): 0.07 ± 0.02 % ID/g
Muscle (192 h after administration): 0.01 ± 0.01 % ID/g
Pancreas (192 h after administration): 0.08 ± 0.02 % ID/g
Spleen (192 h after administration): 0.44 ± 0.12 % ID/g
Stomach (% ID) (192 h after administration): 0.01 ± 0.01 % ID
Compound: O=C([O-])CN(Cc1cccc(C(=O)[O-])n1)C[C@H](Cc1ccc(NC(=O)[C@H](CCCCNC(=O)CCC(=O)NCCCC[C@H](NC(=O)N[C@@H](CCC(=O)O)C(=O)O)C(=O)O)NC(=O)CCCc2ccc(I)cc2)cc1)N(CC(=O)[O-])Cc1cccc(C(=O)[O-])n1.[111In+3] [[^111In]In-Octapa-2]

Blood (1 h after administration): 19.8 ± 2.74 % ID/g
Brain (1 h after administration): 0.36 ± 0.05 % ID/g
Heart (1 h after administration): 5.49 ± 0.77 % ID/g
Intestine (1 h after administration): 2.66 ± 0.28 % ID/g
Kidney (1 h after administration): 37.2 % ID/g and 37.2 ± 6.85 % ID/g
LNCaP Tumor (1 h after administration): 2.18 ± 0.17 % ID/g
Liver (1 h after administration): 3.51 ± 0.38 % ID/g
Lung (1 h after administration): 11.9 ± 1.57 % ID/g
Muscle (1 h after administration): 1.95 ± 0.30 % ID/g
Pancreas (1 h after administration): 2.31 ± 0.14 % ID/g
Spleen (1 h after administration): 15.3 ± 4.89 % ID/g
Stomach (% ID) (1 h after administration): 0.79 ± 0.19 % ID
Blood (24 h after administration): 12.5 ± 1.47 % ID/g
Brain (24 h after administration): 0.30 ± 0.05 % ID/g
Heart (24 h after administration): 3.95 ± 0.87 % ID/g
Intestine (24 h after administration): 1.52 ± 0.41 % ID/g
Kidney (24 h after administration): 68.0 ± 2.82 % ID/g
LNCaP Tumor (24 h after administration): 16.0 % ID/g and 16.0 ± 9.49 % ID/g
Liver (24 h after administration): 3.36 ± 0.77 % ID/g
Lung (24 h after administration): 8.63 ± 1.31 % ID/g
Muscle (24 h after administration): 1.28 ± 0.34 % ID/g
Pancreas (24 h after administration): 2.03 ± 0.48 % ID/g
Spleen (24 h after administration): 9.69 ± 0.92 % ID/g
Stomach (% ID) (24 h after administration): 0.46 ± 0.23 % ID
Blood (48 h after administration): 6.33 ± 1.53 % ID/g
Brain (48 h after administration): 0.20 ± 0.07 % ID/g
Heart (48 h after administration): 1.98 ± 0.41 % ID/g
Intestine (48 h after administration): 0.74 ± 0.28 % ID/g
Kidney (48 h after administration): 55.9 ± 6.39 % ID/g
LNCaP Tumor (48 h after administration): 18.7 % ID/g and 18.7 ± 5.21 % ID/g
Liver (48 h after administration): 2.28 ± 0.75 % ID/g
Lung (48 h after administration): 6.16 ± 1.56 % ID/g
Muscle (48 h after administration): 0.81 ± 0.40 % ID/g
Pancreas (48 h after administration): 1.12 ± 0.39 % ID/g
Spleen (48 h after administration): 10.5 ± 5.62 % ID/g
Stomach (% ID) (48 h after administration): 0.29 ± 0.20 % ID
Compound: O=C([O-])CN1CCN(C(CCC(=O)NCCC(=O)N2Cc3ccccc3-c3c(nnn3CCOCCOCCOCCOCCC(=O)NCCCC[C@H](NC(=O)N[C@@H](CCC(=O)O)C(=O)O)C(=O)O)-c3ccccc32)C(=O)[O-])CCN(CC(=O)[O-])CCN(C(CCC(=O)N[C@@H](CCCCNC(=O)CCCc2ccc(I)cc2)C(=O)O)C(=O)[O-])CC1.[111In+3] (stereo partly drawn) [[^111In]In-PtDA]
